Experimental data published in patent US10385024B2, “Compounds and methods for inhibiting NHE-mediated antiport in the treatment of disorders associated with fluid retention or salt overload and gastrointestinal tract disorders” (Ardelyx, Inc., priority 2012, dated 2019).

Columns and labels:
[1] = molecular target: T1, Rat NHE-3 (Rattus norvegicus, UniProt P26433); test: Cell-based assay of NHE-3 activity (persistent inhibition, after washout); settings: OK cells with rat NHE-3 gene, 60 min incubation, recovery initiated 40 min after compound washout; for IC50: read-out: Rat NHE3 pIC50 (persistent) (converted)
T1 construct: expressed in transfected cells; host or cells: Opossum kidney (OK) cells (ATCC), transfected by electroporation
Method in brief: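 OK cells transiently expressing rat NHE-3 were exposed to 0-30 μM compound in NaCl-HEPES pH 7.4 for 60 min, then washed free of drug before NH4Cl/BCECF-AM loading and acid-loading in Na+-free choline buffer. Na+-dependent pH recovery rates (mean of ≥2 replicates) gave pIC50.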

[2] = molecular target: T2, human NHE-3 (Homo sapiens, UniProt P48764); test: Cell-based assay of NHE-3 activity (human NHE3 inhibition assay); settings: OK cells with human NHE-3 gene, BCECF pH dye, 0-30 μM test compound; for IC50: read-out: Human NHE3 pIC50 (converted)
T2 construct: expressed in transfected cells; host or cells: Opossum kidney (OK) cells (ATCC), transfected by electroporation
T2 sequence (P48764 26-834): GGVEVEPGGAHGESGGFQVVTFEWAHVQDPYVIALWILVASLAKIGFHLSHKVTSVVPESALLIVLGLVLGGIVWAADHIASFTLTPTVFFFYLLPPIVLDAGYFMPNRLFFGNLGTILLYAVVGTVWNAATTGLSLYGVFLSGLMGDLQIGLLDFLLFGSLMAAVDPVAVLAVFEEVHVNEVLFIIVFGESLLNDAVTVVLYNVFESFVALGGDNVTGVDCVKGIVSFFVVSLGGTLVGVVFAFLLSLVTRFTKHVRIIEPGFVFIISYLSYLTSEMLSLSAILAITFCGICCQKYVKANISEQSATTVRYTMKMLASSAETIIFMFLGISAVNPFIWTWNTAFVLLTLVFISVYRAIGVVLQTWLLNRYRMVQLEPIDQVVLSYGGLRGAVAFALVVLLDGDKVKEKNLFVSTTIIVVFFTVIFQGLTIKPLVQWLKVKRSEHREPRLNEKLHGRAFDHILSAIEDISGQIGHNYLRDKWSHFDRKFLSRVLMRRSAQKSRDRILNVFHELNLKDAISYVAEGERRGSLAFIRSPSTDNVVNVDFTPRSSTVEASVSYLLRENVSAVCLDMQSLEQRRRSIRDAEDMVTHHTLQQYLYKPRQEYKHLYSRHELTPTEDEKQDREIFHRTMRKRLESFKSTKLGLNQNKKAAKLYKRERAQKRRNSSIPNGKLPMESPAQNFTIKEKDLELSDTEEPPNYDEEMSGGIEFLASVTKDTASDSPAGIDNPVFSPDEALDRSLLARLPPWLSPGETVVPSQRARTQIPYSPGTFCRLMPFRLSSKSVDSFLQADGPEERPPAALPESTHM
Method in brief: (§1)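 Opossum kidney cells electroporated with rat or human NHE-3, loaded with 5 μM BCECF-AM in NH4Cl-HEPES pH 7.4 for 30 min at RT, then acidified 10 min in Na+-free choline HEPES. Na+-dependent pH recovery rates from BCECF fluorescence, averaged over ≥2 replicates, gave pIC50.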

[3] = test system: absorption of sodium from the intestinal lumen; test: Inhibition of intestinal sodium absorption (urinary sodium and fecal form); type: in vivo, Sprague-Dawley rats; settings: rat; for response vs control in vivo at 3 mg/kg: 3 mg/kg oral gavage, urine 16 h post-dose, asterisks = significance vs vehicle (*P<0.05, **P<0.01, ***P<0.001), read-out: uNa (% of vehicle); for FFS: fecal form score, scale 1 (normal pellet) to 5 (liquid fecal streams), group average, 3 mg/kg oral, 16 h post-dose, vehicle = 1
Protocol: Urinary sodium concentration and fecal form were measured to assess the ability of selected example compounds to inhibit the absorption of sodium from the intestinal lumen. Eight-week old Sprague-Dawley rats were purchased from Charles River Laboratories (Hollister, Calif.), were housed 2 per cage, and acclimated for at least 3 days before study initiation. Animals were fed Harlan Teklad Global 2018 rodent chow (Indianapolis, Ind.) and water ad libitum throughout the study and maintained in a standard light/dark cycle of 6 AM to 6 PM. On the day of the study, between 4 PM and 5 PM, a group of rats (n=6) were dosed via oral gavage with test compound at the dosage indicated or vehicle (water) at a volume of 10 mL/kg. After dose administration animals were placed in individual metabolic cages where they were also fed the same chow in meal form and watered ad libitum. At 16 h post-dose, the urine samples were collected and fecal form was assessed by two independent observations. Fecal forms were scored according to a common scale associated with increasing fecal water to the wettest observation in the cage's collection funnel (1, normal pellet; 2, pellet adhering to sides of collection funnel due to moisture; 3, loss of normal pellet shape; 4, complete loss of shape with a blotting pattern; 5, liquid fecal streams evident). A rat's fecal form score (FFS) was determined by averaging both observational scores for all rats within a group (n=6). In every study the vehicle group average was 1. For urine samples, the volumes were determined gravimetrically and centrifuged at 3,600×g. The supernatants were diluted 100-fold in deionized Milli-Q water then filtered through a 0.2 μm GHP Pall AcroPrep filter plate (Pall Life Sciences, Ann Arbor, Mich.) prior to analysis by ion chromatography. Ten microliters of each filtered extract was injected onto a Dionex ICS-3000 ion chromatograph system (Dionex, Sunnyvale, Calif.). Cations were separated by an isocratic method using 25 mM methanesulfonic acid as the eluent on an IonPac CS12A 2 mm i.d.×250 mm, 8 μm particle size cation exchange column (Dionex). Sodium was quantified using standards prepared from a cation standard mix containing Li^+, Na^+, NH4^+, K^+, Mg^2+, and Ca^2+ (Dionex). The mean mass of sodium urinated for every group in the 16 h period was determined with the vehicle group usually urinating approximately 21 mg sodium. The urine Na (uNa) for rats in the test groups were expressed as a percentage of the vehicle mean and the means were compared to that of the vehicle group by utilizing a one-way analysis of variance coupled with a Dunnett's post hoc test.

[4] = molecular target: T1, Rat NHE-3; test: Cell-based assay of NHE-3 activity (rat NHE-3 prompt inhibition); settings: OK cells with rat NHE-3 gene, compound present during pH recovery; for IC50: read-out: Rat NHE3 pIC50 (prompt) (converted)
Method in brief: as §1

T1 sequence (P26433 29-831): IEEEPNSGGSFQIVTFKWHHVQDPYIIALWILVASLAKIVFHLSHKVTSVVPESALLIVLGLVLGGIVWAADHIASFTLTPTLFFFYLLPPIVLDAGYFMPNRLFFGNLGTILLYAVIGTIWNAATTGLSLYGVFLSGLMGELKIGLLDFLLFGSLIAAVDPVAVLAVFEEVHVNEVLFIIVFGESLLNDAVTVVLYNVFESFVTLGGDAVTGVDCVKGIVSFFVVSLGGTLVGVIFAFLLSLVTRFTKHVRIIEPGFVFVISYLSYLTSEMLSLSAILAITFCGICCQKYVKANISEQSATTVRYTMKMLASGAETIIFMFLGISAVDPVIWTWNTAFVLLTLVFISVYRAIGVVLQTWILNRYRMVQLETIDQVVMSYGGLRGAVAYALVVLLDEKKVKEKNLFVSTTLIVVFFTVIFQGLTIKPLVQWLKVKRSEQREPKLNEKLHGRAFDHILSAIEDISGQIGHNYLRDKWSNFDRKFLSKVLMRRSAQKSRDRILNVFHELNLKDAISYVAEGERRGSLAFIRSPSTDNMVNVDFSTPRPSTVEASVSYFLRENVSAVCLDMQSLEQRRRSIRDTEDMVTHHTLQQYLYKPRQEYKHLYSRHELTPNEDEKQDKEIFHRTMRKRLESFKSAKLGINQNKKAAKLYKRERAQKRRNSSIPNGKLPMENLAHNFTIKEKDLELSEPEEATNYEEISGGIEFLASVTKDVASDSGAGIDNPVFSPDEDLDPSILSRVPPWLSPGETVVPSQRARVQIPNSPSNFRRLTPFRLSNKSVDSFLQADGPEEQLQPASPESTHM

## CN1Cc2c(Cl)cc(Cl)cc2[C@H](c2cccc(S(=O)(=O)NCCOCCOCCNC(=O)CCC(CCC(=O)NCCOCCOCCNS(=O)(=O)c3cccc([C@@H]4CN(C)Cc5c(Cl)cc(Cl)cc54)c3)(CCC(=O)NCCOCCOCCNS(=O)(=O)c3cccc([C@@H]4CN(C)Cc5c(Cl)cc(Cl)cc54)c3)NS(C)(=O)=O)c2)C1 [Example 5, N^1,N^7-bis(2-(2-(2-(3-((S)-6,8-dichloro-2-methyl-1,2,3,4-tetrahydroisoquinolin-4-yl)phenylsulfonamido)ethoxy)ethoxy)ethyl)-4-(3-(2-(2-(2-(3-((S)-6,8-dichloro-2-methyl-1,2,3,4-tetrahydroisoquinolin-4-yl)phenylsulfonamido)ethoxy)ethoxy)ethylamino)-3-oxopropyl)-4-(methylsulfonamido)heptanediamide]
[1]
  IC50: < 100 nM
[2]
  IC50: 100 to 10000 nM
[3]
  response vs control in vivo at 3 mg/kg: 35 to 75%
[4]
  IC50: 100 to 10000 nM

## CN1Cc2c(Cl)cc(Cl)cc2[C@H](c2cccc(S(=O)(=O)NCCOCCOCCNC(=O)CCC(CCC(=O)NCCOCCOCCNS(=O)(=O)c3cccc([C@@H]4CN(C)Cc5c(Cl)cc(Cl)cc54)c3)(CCC(=O)NCCOCCOCCNS(=O)(=O)c3cccc([C@@H]4CN(C)Cc5c(Cl)cc(Cl)cc54)c3)NC(N)=O)c2)C1 [Example 8, N1,N7-bis(2-(2-(2-(3-((S)-6,8-dichloro-2-methyl-1,2,3,4-tetrahydroisoquinolin-4-yl)phenylsulfonamido)ethoxy)ethoxy)ethyl)-4-(3-(2-(2-(2-(3-((S)-6,8-dichloro-2-methyl-1,2,3,4-tetrahydroisoquinolin-4-yl)phenylsulfonamido)ethoxy)ethoxy)ethylamino)-3-oxopropyl)-4-ureidoheptanediamide]
[1]
  IC50: < 100 nM
[2]
  IC50: < 100 nM
[3]
  response vs control in vivo at 3 mg/kg: < 35%
[4]
  IC50: 100 to 10000 nM

## CN1Cc2c(Cl)cc(Cl)cc2[C@H](c2cccc(S(=O)(=O)NCCOCCOCCOCCNC(=O)CCC(N)(CCC(=O)NCCOCCOCCOCCNS(=O)(=O)c3cccc([C@@H]4CN(C)Cc5c(Cl)cc(Cl)cc54)c3)CCC(=O)NCCOCCOCCOCCNS(=O)(=O)c3cccc([C@@H]4CN(C)Cc5c(Cl)cc(Cl)cc54)c3)c2)C1 [Example 9, 4-amino-4-(1-(3-((S)-6,8-dichloro-2-methyl-1,2,3,4-tetrahydroisoquinolin-4-yl)phenylsulfonamido)-13-oxo-3,6,9-trioxa-12-azapentadecan-15-yl)-N^1,N^7-bis(2-(2-(2-(2-(3-((S)-6,8-dichloro-2-methyl-1,2,3,4-tetrahydroisoquinolin-4-yl)phenylsulfonamido)ethoxy)ethoxy)ethoxy)ethyl)heptanediamide]
[1]
  IC50: < 100 nM
[2]
  IC50: < 100 nM
[3]
  response vs control in vivo at 3 mg/kg: < 35%
[4]
  IC50: < 100 nM

## CCC(=O)NC(CCC(=O)NCCOCCOCCOCCNS(=O)(=O)c1cccc([C@@H]2CN(C)Cc3c(Cl)cc(Cl)cc32)c1)(CCC(=O)NCCOCCOCCOCCNS(=O)(=O)c1cccc([C@@H]2CN(C)Cc3c(Cl)cc(Cl)cc32)c1)CCC(=O)NCCOCCOCCOCCNS(=O)(=O)c1cccc([C@@H]2CN(C)Cc3c(Cl)cc(Cl)cc32)c1 [Example 10, 4-(1-(3-((S)-6,8-dichloro-2-methyl-1,2,3,4-tetrahydroisoquinolin-4-yl)phenylsulfonamido)-13-oxo-3,6,9-trioxa-12-azapentadecan-15-yl)-N1,N7-bis(2-(2-(2-(2-(3-((S)-6,8-dichloro-2-methyl-1,2,3,4-tetrahydroisoquinolin-4-yl)phenylsulfonamido)ethoxy)ethoxy)ethoxy)ethyl)-4-propionamidoheptanediamide]
[1]
  IC50: < 100 nM
[2]
  IC50: < 100 nM
[3]
  FFS: 2
  response vs control in vivo at 3 mg/kg: 35 to 75%
[4]
  IC50: < 100 nM

## CN1Cc2c(Cl)cc(Cl)cc2[C@H](c2cccc(S(=O)(=O)NCCOCCOCCNC(=O)CCC(CCC(=O)NCCOCCOCCNS(=O)(=O)c3cccc([C@@H]4CN(C)Cc5c(Cl)cc(Cl)cc54)c3)(CCC(=O)NCCOCCOCCNS(=O)(=O)c3cccc([C@@H]4CN(C)Cc5c(Cl)cc(Cl)cc54)c3)NC(=O)N[C@@H](CC(=O)O)C(=O)O)c2)C1 [Example 12, (S)-2-(3-(1,25-bis(3-((S)-6,8-dichloro-2-methyl-1,2,3,4-tetrahydroisoquinolin-4-yl)phenylsulfonamido)-13-(3-(2-(2-(2-(3-((S)-6,8-dichloro-2-methyl-1,2,3,4-tetrahydroisoquinolin-4-yl)phenylsulfonamido)ethoxy)ethoxy)ethylamino)-3-oxopropyl)-10,16-dioxo-3,6,20,23-tetraoxa-9,17-diazapentacosan-13-yl)ureido)succinic acid]
[1]
  IC50: < 100 nM
[2]
  IC50: < 100 nM
[3]
  FFS: 3
  response vs control in vivo at 3 mg/kg: 35 to 75%
[4]
  IC50: < 100 nM

## CN1Cc2c(Cl)cc(Cl)cc2[C@H](c2cccc(S(=O)(=O)NCCOCCOCCNC(=O)CCC(CCC(=O)NCCOCCOCCNS(=O)(=O)c3cccc([C@@H]4CN(C)Cc5c(Cl)cc(Cl)cc54)c3)(CCC(=O)NCCOCCOCCNS(=O)(=O)c3cccc([C@@H]4CN(C)Cc5c(Cl)cc(Cl)cc54)c3)NC(=O)N(C)C)c2)C1 [Example 25]
[1]
  Rat NHE3 pIC50 (persistent): C (C NHE3 pIC50 > 7)
[2]
  Human NHE3 pIC50: B (B NHE3 pIC50 5-7)
[3]
  response vs control in vivo at 3 mg/kg: < 35%
[4]
  Rat NHE3 pIC50 (prompt): B (B NHE3 pIC50 5-7)

## CNC(=O)NC(CCC(=O)NCCOCCOCCNS(=O)(=O)c1cccc([C@@H]2CN(C)Cc3c(Cl)cc(Cl)cc32)c1)(CCC(=O)NCCOCCOCCNS(=O)(=O)c1cccc([C@@H]2CN(C)Cc3c(Cl)cc(Cl)cc32)c1)CCC(=O)NCCOCCOCCNS(=O)(=O)c1cccc([C@@H]2CN(C)Cc3c(Cl)cc(Cl)cc32)c1 [Example 26]
[1]
  Rat NHE3 pIC50 (persistent): C (C NHE3 pIC50 > 7)
[2]
  Human NHE3 pIC50: C (C NHE3 pIC50 > 7)
[3]
  response vs control in vivo at 3 mg/kg: < 35%
[4]
  Rat NHE3 pIC50 (prompt): B (B NHE3 pIC50 5-7)
